For this experiment, the target named is Receptor-type tyrosine-protein kinase FLT3 (Homo sapiens) (UniProt P36888). The experiment in a line: inhibitors of Homo sapiens fms-like tyrosine kinase 3, primary HTS, cell-free, LANCE Ultra TR-FRET, NPC library from NCATS (AID 1117356). As to conditions: recombinant FLT3, LANCE Ultra TR-FRET kinase assay, stronger effect = higher value. A general note: In TR-FRET formats the signal depends on donor and acceptor labels being close together.

By inhibition is commonly meant the change of the read-out against control, counted positive when it falls.

Active and inactive are the calls of the source. The rule behind the calls is not given here.

Sequence of Receptor-type tyrosine-protein kinase FLT3 (Homo sapiens) (P36888 whole entry, looked up): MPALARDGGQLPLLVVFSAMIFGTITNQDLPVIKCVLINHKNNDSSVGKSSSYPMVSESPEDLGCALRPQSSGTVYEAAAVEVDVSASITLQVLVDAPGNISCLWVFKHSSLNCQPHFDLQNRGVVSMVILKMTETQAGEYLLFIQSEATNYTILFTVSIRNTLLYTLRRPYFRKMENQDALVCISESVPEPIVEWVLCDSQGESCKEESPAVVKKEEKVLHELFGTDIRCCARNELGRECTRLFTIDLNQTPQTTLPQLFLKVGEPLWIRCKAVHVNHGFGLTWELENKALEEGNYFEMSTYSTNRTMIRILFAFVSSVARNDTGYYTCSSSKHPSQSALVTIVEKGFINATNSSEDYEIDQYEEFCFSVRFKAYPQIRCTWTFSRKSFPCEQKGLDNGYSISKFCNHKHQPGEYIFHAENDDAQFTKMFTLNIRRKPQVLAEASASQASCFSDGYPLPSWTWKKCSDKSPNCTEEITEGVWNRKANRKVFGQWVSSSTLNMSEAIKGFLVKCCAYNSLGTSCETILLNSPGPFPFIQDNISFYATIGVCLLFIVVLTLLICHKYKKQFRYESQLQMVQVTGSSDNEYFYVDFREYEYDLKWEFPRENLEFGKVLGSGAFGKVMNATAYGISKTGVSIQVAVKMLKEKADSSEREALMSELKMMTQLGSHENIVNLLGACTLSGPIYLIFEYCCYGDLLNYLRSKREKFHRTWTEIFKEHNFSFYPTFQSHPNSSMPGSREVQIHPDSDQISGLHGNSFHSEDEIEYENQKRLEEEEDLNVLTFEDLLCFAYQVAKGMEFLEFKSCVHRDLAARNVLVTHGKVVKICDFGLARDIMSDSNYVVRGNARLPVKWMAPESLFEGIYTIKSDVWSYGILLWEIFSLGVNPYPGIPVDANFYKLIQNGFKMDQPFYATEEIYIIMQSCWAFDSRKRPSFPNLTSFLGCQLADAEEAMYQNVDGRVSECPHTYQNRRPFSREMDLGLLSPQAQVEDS

With `COC(=O)Nc1nc2ccc(C(=O)c3ccccc3)cc2[nH]1`, the inhibition runs as follows: (at 20 µM) 11.7% (inactive); (inhibition, at 0.2 µM) -25.2%; (inhibition, at 2 µM) 8.15%.

For the compound `CNC(=O)c1ccccc1Sc1ccc2c(/C=C/c3ccccn3)n[nH]c2c1`, the inhibition by setting is: (at 20 µM) 76.9%; (inhibition, at 0.2 µM) 12.4%; (inhibition, at 2 µM) 76.3%.

Turning to `Cc1ccccc1C(=O)Nc1ccc(C(=O)N2CCCC(N(C)C)c3ccccc32)cc1` (configuration not stated), the inhibition runs as follows: (at 20 µM) -14% (inactive); (inhibition, at 0.2 µM) -17.9%; (inhibition, at 2 µM) 9.15%.

Regarding `COC(=O)Nc1nc2ccc(C(=O)c3cccs3)cc2[nH]1`, the inhibition is, setting by setting: (at 20 µM) 33.9% (inactive); (inhibition, at 0.2 µM) -29.8%; (inhibition, at 2 µM) 27.3%.

`COc1cc([C@@H]2c3cc4c(cc3[C@H](O)[C@H]3COC(=O)[C@H]23)OCO4)cc(OC)c1OC`: the inhibition is 1.36% (inactive) (at 20 µM); -11.9% (inhibition, at 0.2 µM); 4.83% (inhibition, at 2 µM).

For the compound `Cn1cnc([N+](=O)[O-])c1Sc1ncnc2nc[nH]c12`, the inhibition was -6.53% (inactive) (at 20 µM); -22.4% (inhibition, at 0.2 µM); 4.78% (inhibition, at 2 µM).

For `COc1cccc2c1C(=O)c1c(O)c3c(c(O)c1C2=O)C[C@@](O)(C(C)=O)C[C@@H]3O[C@H]1C[C@H](N)[C@H](O)[C@H](C)O1`, the inhibition (at 20 µM) was -2.27% (inactive); the inhibition (inhibition, at 0.2 µM) is 0.52%; the inhibition (inhibition, at 2 µM) was -18.3%.

Regarding `COC(=O)Nc1nc2ccc(C(=O)C3CC3)cc2[nH]1`, the inhibition by setting is: (at 20 µM) 68.8%; (inhibition, at 0.2 µM) -3.31%; (inhibition, at 2 µM) 33.1%.

Turning to `Cc1ccc([N+](=O)[O-])[c]2c1[O][Hg]2`, the inhibition (at 20 µM) is 61.9%; the inhibition (inhibition, at 0.2 µM) is -27.4%; the inhibition (inhibition, at 2 µM) was found to be 26.6%.

For `CCCCCCNC(=O)n1cc(F)c(=O)[nH]c1=O`, the inhibition by setting is: (at 20 µM) -1.76% (inactive); (inhibition, at 0.2 µM) -6.64%; (inhibition, at 2 µM) -7.12%.

With `[O-][n+]1ccccc1SSc1cccc[n+]1[O-]`, the inhibition is -9.22% (inactive) (at 20 µM); -25.4% (inhibition, at 0.2 µM); 5.1% (inhibition, at 2 µM).

For the compound `Cc1ccc(Nc2nccc(N(C)c3ccc4c(C)n(C)nc4c3)n2)cc1S(N)(=O)=O`, the inhibition reads like this: (at 20 µM) 91.3%; (inhibition, at 0.2 µM) -13.3%; (inhibition, at 2 µM) 74.4%.

For the compound `CC(C)C[C@H](NC(=O)[C@H](Cc1ccccc1)NC(=O)c1cnccn1)B(O)O`, the inhibition was 3.25% (inactive) (at 20 µM); -26.9% (inhibition, at 0.2 µM); 13.7% (inhibition, at 2 µM).

As for `CCCCCCCCCCCCCC[N+](C)(C)C`, the inhibition was 9.63% (inactive) (at 20 µM); -25.3% (inhibition, at 0.2 µM); 11.1% (inhibition, at 2 µM).

`O=C(CCl)c1ccc(Cl)cc1Cl`: the inhibition reads like this: (at 20 µM) -7.4% (inactive); (inhibition, at 0.2 µM) -30.4%; (inhibition, at 2 µM) 7.53%.

Consider `CC(=O)Oc1ccc(C2(c3ccc(OC(C)=O)cc3)Oc3ccccc3NC2=O)cc1`, for which the inhibition is 17.5% (inactive) (at 20 µM); -18.2% (inhibition, at 0.2 µM); 14.5% (inhibition, at 2 µM).

Regarding `O=C(Nc1ccc([N+](=O)[O-])cc1Cl)c1cc(Cl)ccc1O`, the inhibition was 19.6% (inactive) (at 20 µM); -17.5% (inhibition, at 0.2 µM); 12.3% (inhibition, at 2 µM).

In the case of `CN(C)c1ccc2nc3ccc(=[N+](C)C)cc-3sc2c1`, the inhibition runs as follows: (at 20 µM) -76.3% (inactive); (inhibition, at 0.2 µM) -18.8%; (inhibition, at 2 µM) 17.2%.

On to `CC(C)C[C@H](NC(=O)[C@H](CCc1ccccc1)NC(=O)CN1CCOCC1)C(=O)N[C@@H](Cc1ccccc1)C(=O)N[C@@H](CC(C)C)C(=O)[C@@]1(C)CO1`, for which the inhibition was 8.47% (inactive) (at 20 µM); -8.96% (inhibition, at 0.2 µM); 15% (inhibition, at 2 µM).

`Oc1c(I)cc(I)c2cccnc12`: the inhibition was 12.8% (inactive) (at 20 µM); -23.2% (inhibition, at 0.2 µM); 10.1% (inhibition, at 2 µM).

Consider `CC(C)(C)C1CCC(CC2=C(O)c3ccccc3C(=O)C2=O)CC1` (configuration not stated), for which the inhibition (at 20 µM) is 37.2% (inactive); the inhibition (inhibition, at 0.2 µM) was -5.99%; the inhibition (inhibition, at 2 µM) was 21.2%.

In the case of `O=C(NOCC1CC1)c1ccc(F)c(F)c1Nc1ccc(I)cc1Cl`, the inhibition (at 20 µM) is -17.5% (inactive); the inhibition (inhibition, at 0.2 µM) is -18.3%; the inhibition (inhibition, at 2 µM) is 1.39%.

For `Cc1nc(N)nc(N)c1-c1ccc(Cl)c(Cl)c1`, the inhibition is 14.5% (inactive) (at 20 µM); -7.85% (inhibition, at 0.2 µM); 8.61% (inhibition, at 2 µM).

Regarding `Cc1cc(O)c2ccccc2c1O`, the inhibition by setting is: (at 20 µM) 37.3% (inactive); (inhibition, at 0.2 µM) -26.3%; (inhibition, at 2 µM) 3.27%.

Turning to `COc1ccc2cc1Oc1ccc(cc1)C[C@H]1c3c(cc4c(c3Oc3cc5c(cc3OC)CCN(C)[C@@H]5C2)OCO4)CCN1C`, the inhibition is, setting by setting: (at 20 µM) -6.46% (inactive); (inhibition, at 0.2 µM) -16%; (inhibition, at 2 µM) -0.97%.

As for `CCCN(CCC)C(=O)C(CCC(=O)OCCCN1CCN(CCOC(=O)Cc2c(C)n(C(=O)c3ccc(Cl)cc3)c3ccc(OC)cc23)CC1)NC(=O)c1ccccc1` (configuration not stated), the inhibition is, setting by setting: (at 20 µM) 9.63% (inactive); (inhibition, at 0.2 µM) -10.3%; (inhibition, at 2 µM) 12.7%.

As to `CCCCCCCCCCCCCCCC[n+]1ccccc1`, the inhibition by setting is: (at 20 µM) -7.99% (inactive); (inhibition, at 0.2 µM) -19.8%; (inhibition, at 2 µM) 2.47%.

In the case of `CC[C@@H]([C@H](C)O)n1ncn(-c2ccc(N3CCN(c4ccc(OC[C@@H]5CO[C@@](Cn6cncn6)(c6ccc(F)cc6F)C5)cc4)CC3)cc2)c1=O`, the inhibition runs as follows: (at 20 µM) -23.2% (inactive); (inhibition, at 0.2 µM) -42.6%; (inhibition, at 2 µM) -10.5%.

Turning to `COC(=O)Nc1nc2ccc(S(=O)c3ccccc3)cc2[nH]1` (configuration not stated), the inhibition (at 20 µM) was -8.2% (inactive); the inhibition (inhibition, at 0.2 µM) was -15.5%; the inhibition (inhibition, at 2 µM) came to 16.7%.

As for `COCc1c(C(C)C)nc(C(C)C)c(/C=C/[C@@H](O)C[C@@H](O)CC(=O)O)c1-c1ccc(F)cc1`, the inhibition was 8.38% (inactive) (at 20 µM); -11.4% (inhibition, at 0.2 µM); 11.1% (inhibition, at 2 µM).

For `CC[C@]1(O)C[C@@H]2CN(CCc3c([nH]c4ccccc34)[C@@](C(=O)OC)(c3cc4c(cc3OC)N(C)[C@H]3[C@@](O)(C(=O)OC)[C@H](OC(C)=O)[C@]5(CC)C=CCN6CC[C@]43[C@@H]65)C2)C1`, the inhibition is -5.73% (inactive) (at 20 µM); -16.1% (inhibition, at 0.2 µM); 13.8% (inhibition, at 2 µM).

For the compound `CCC1=C[C@@H]2CN(C1)Cc1c([nH]c3ccccc13)[C@@](C(=O)OC)(c1cc3c(cc1OC)N(C)[C@H]1[C@@](O)(C(=O)OC)[C@H](OC(C)=O)[C@]4(CC)C=CCN5CC[C@]31[C@@H]54)C2`, the inhibition (at 20 µM) is -1.29% (inactive); the inhibition (inhibition, at 0.2 µM) was -17.1%; the inhibition (inhibition, at 2 µM) worked out at 7.24%.

Turning to `CSc1ccc2c(c1)C(N1CCN(C)CC1)Cc1ccccc1S2` (configuration not stated), the inhibition is, setting by setting: (at 20 µM) 44.8% (inactive); (inhibition, at 0.2 µM) -5.03%; (inhibition, at 2 µM) 16.4%.

As to `COc1cc(-c2ccc(=O)[nH]n2)ccc1OC(F)F`, the inhibition is -7.69% (inactive) (at 20 µM); -21.1% (inhibition, at 0.2 µM); 1.13% (inhibition, at 2 µM).

On to `CCCSc1ccc2nc(NC(=O)OC)[nH]c2c1`, for which the inhibition reads like this: (at 20 µM) 10.2% (inactive); (inhibition, at 0.2 µM) -15.1%; (inhibition, at 2 µM) 22.7%.

Turning to `C[C@@]12C(=O)OC(=O)[C@]1(C)C1CCC2O1`, the inhibition reads like this: (at 20 µM) -4.71% (inactive); (inhibition, at 0.2 µM) -12.1%; (inhibition, at 2 µM) 6.97%.

For `COC(=O)c1nc(Cl)c(Cl)nc1N`, the inhibition by setting is: (at 20 µM) 60.2%; (inhibition, at 0.2 µM) 16.3%; (inhibition, at 2 µM) 51%.

On to `COc1cc(NCc2ccc3nc(N)nc(N)c3c2C)cc(OC)c1OC`, for which the inhibition is, setting by setting: (at 20 µM) -229% (inactive); (inhibition, at 0.2 µM) -7.18%; (inhibition, at 2 µM) 0.42%.

Turning to `NC(=NCCCCCCN=C(N)/N=C(\N)Nc1ccc(Cl)cc1)/N=C(\N)Nc1ccc(Cl)cc1`, the inhibition is, setting by setting: (at 20 µM) 10.1% (inactive); (inhibition, at 0.2 µM) -2.84%; (inhibition, at 2 µM) 22.6%.

With `Nc1ccc2cc3ccc(N)cc3nc2c1`, the inhibition is, setting by setting: (inhibition, at 0.2 µM) -26.7%; (inhibition, at 2 µM) -3.06%.

As to `CCCOc1ccc2nc(NC(=O)OC)[nH]c2c1`, the inhibition (at 20 µM) is 1.68% (inactive); the inhibition (inhibition, at 0.2 µM) is -19.3%; the inhibition (inhibition, at 2 µM) came out at 17%.

`O=C(CCCCCCC(=O)Nc1ccccc1)NO`: the inhibition is, setting by setting: (at 20 µM) -5.57% (inactive); (inhibition, at 0.2 µM) -26.9%; (inhibition, at 2 µM) 8.74%.

For `O=c1[nH]c(=O)n([C@H]2C[C@H](O)[C@@H](CO)O2)cc1C(F)(F)F`, the inhibition was -3.93% (inactive) (at 20 µM); -10.1% (inhibition, at 0.2 µM); 6.77% (inhibition, at 2 µM).

For the compound `Cc1cc(C)c(/C=C2\C(=O)Nc3ccccc32)[nH]1`, the inhibition was 97.7% (at 20 µM); 93.8% (inhibition, at 0.2 µM); 98.6% (inhibition, at 2 µM).

Consider `CC(=O)[C@]1(O)Cc2c(O)c3c(c(O)c2[C@@H](O[C@H]2C[C@H](N)[C@H](O)[C@H](C)O2)C1)C(=O)c1ccccc1C3=O`, for which the inhibition was -8.58% (inhibition, at 0.2 µM) and -59.1% (inhibition, at 2 µM).

Consider `Cc1ccc2nc(N)[nH]c(=O)c2c1Sc1ccncc1`, for which the inhibition (at 20 µM) was 27.5% (inactive); the inhibition (inhibition, at 0.2 µM) was -4.81%; the inhibition (inhibition, at 2 µM) came out at 25.2%.

In the case of `CN1CC[C@H](c2c(O)cc(O)c3c(=O)cc(-c4ccccc4Cl)oc23)[C@H](O)C1`, the inhibition was 61.7% (at 20 µM); -9.71% (inhibition, at 0.2 µM); 28.8% (inhibition, at 2 µM).

As for `O=C(O)c1ccc(-n2nc(-c3ccccc3O)nc2-c2ccccc2O)cc1`, the inhibition reads like this: (at 20 µM) 31.5% (inactive); (inhibition, at 0.2 µM) -9.59%; (inhibition, at 2 µM) 7.62%.

(Values after PubChem BioAssay AID1117356 (Cheminformatics & Chemogenomics Research Group (CCRG), …, 2015).)
